Source: US6166085A, “Method of producing analgesia” (priority 1996, dated 2000)
Entries after “also recorded” stand apart in the source; their conditions may differ.

Assays:
[1] = Observation of motor dysfunction and overt behavior / side effects; assay type: in vivo, Sprague-Dawley rats; details: IT; for motor dysfunction, IT (in words): Example 3, lidocaine and MEGX 500 μg, 3-OH L 58 μg (highest dose soluble in vehicle)
Text: Animals were also observed for the appearance of general motor dysfunction,as evidenced by inability to ambulate symmetrically and for any other overt signs of unusual activity.

[2] = system: sciatic nerve compound action potential; assay: Rat sciatic nerve compound action potential in vivo, direct application; design: species or system Harlan Sprague Dawley rats; details: for potency relative to lidocaine: compound action potential blockade; for blockade of sciatic nerve compound action potential (in words): direct application, lidocaine 2.5 mg, metabolites 5 mg, 10 min
Description: Male Harlan Sprague Dawley rats (300-350 g) were anesthetized with pentobarbital/diazepam. The sciatic nerves were sequentially and bilaterally exposed by sharp/blunt dissection from the popliteal region proximally. Electrodes were placed at the sciatic notch (stimulating), and the interossei (recording); a grounding electrode was applied remote from the field. Baseline compound action potential (CAP) (A alpha/beta) wave heights (mV) in response to stimulation 1× per minute were recorded for ten minutes to obtain a stable reference. One drug/vehicle solution was applied per nerve, at mid-nerve (mid-thigh) level, in a volume of 250 μl, and compound action potential wave height then was recorded 1× per minute for ten minutes after application.

allodynia [3] = details: cited from earlier work; for activity as metabolite with regard to allodynia suppression, earlier application: application Ser. No. 08/422,377
allodynia [4] = assay: Tactile allodynia (paw withdrawal threshold, % MPE) in L5/L6 spinal nerve ligated rats, Example 3; assay type: in vivo, Harlan Sprague-Dawley rats; details: for effect on allodynia, IV (in words) / Emax at 20 mg/kg: 20 mg/kg; for Emax at 20 mg/kg: Rattus norvegicus, 1 h, IV, 3-OH L in DMSO (p=0.006 vs DMSO, N=4), MEGX over 60 minutes (P=NS vs saline), read-out: maximum effect on PWT (% MPE), IV
Description: Male Harlan Sprague-Dawley rats were used (100-200 g). Rats were housed 2-3 to a cage with corn cob bedding and Purina rat chow and water ad libitum, in a standard facility with a 12 h/12 h day/night cycle. After surgical procedures involving chronic indwelling catheter insertion, animals were housed singly to prevent catheter damage.
Rats were allowed to recover 5-7 days before further testing or surgeries.
The catheters were 9 cm in intrathecal length and terminated near the lumbar enlargement. The rostral 3 cm of catheter was tunneled under the skin to externalize between the ears. Rats with neurologic deficits were discarded.
For intravascular access, external jugular catheters were fashioned from PE-50 tubing and inserted into an external jugular vein under halothane/oxygen anesthesia. Arterial catheters were also fashioned from PE-50 with a small bouton 1 cm from the intravascular end for suture securing; they were inserted into a carotid artery, taking care to spare the surrounding nerves. All catheters were flushed with heparinized saline (10 U/ml) and tunneled subcutaneously to emerge at the posterior base of the neck, and capped when not in use.
Monoethylglycinexylidide (MEGX) and 3-hydroxy monoethyl-glycinexylidide (3-OH MEGX) were dissolved in physiologic saline; 3-hydroxylidocaine (3-OH L) was dissolved in DMSO for intravenous administration.
(§1) Intravenous drugs were delivered to awake, unrestrained rats by slow infusion using a syringe pump (Harvard apparatus 22). Intrathecal drugs were delivered to awake, briefly restrained rats in a volume of 10 μl, followed by 10 μl of vehicle flush, using a calibrated tubing extension with a 30-gauge adapter fitting the implanted intrathecal catheter, attached to a geared Hamilton 100 μl glass syringe. IT drug delivery was monitored by observing the advancement of a small air bubble down the tubing.
Rats were placed in a plastic cage with an open wire mesh bottom and allowed to accommodate for approximately fifteen minutes. […] In brief, von Frey hairs were sequentially applied using an up-and-down paradigm to the left mid-plantar hindpaw with sufficient force to cause slight filament buckling. Positive responses were noted if the paw was sharply withdrawn. […] Otherwise, PWT were calculated by noting the stimulus level at which the first change in behavior occurred, collecting four additional responses to the continued up-and-down oscillation of stimulus presentation around the response threshold, and interpolating the 50% response threshold. For some comparisons, raw thresholds were converted to percent of maximum possible effect (% MPE), designating pre-treatment PWT (baselines) as 0% effect, and assigning a cutoff value of 100% effect to thresholds ≥15 g: therefore, % MPE values near 100 indicate normal mechanical thresholds (i.e., at or near 15 g), whereas values near 0 indicate allodynia. The following equation was used to compute % MPE:
% MPE=new threshold(g)-baseline threshold(g)×100/ 15 grams--baseline
Plasma drug levels and PWT were correlated using linear regression. Serially measured PWT and % MPE were compared using repeated measures ANOVA with post-hoc testing.

[5] = Plasma bupivacaine level and toxicity during IV infusion; assay type: in vivo, Harlan Sprague-Dawley rats
Description: as §1
For bupivacaine assays, samples were obtained by withdrawing and discarding approximately 0.3 cc of blood from arterial cannulae, and then withdrawing samples of approximately 0.5 cc volume. These samples were centrifuged and the plasma supernatant was frozen at -20° C. until analysis.
Bupivacaine was extracted from the thawed samples by solid-phase extraction chromatography )Chen Y et al., Therapeut Drug Monitor 14:317-321 (1992)). Sep-Pak C-18 (300 mg) cartridges were pre-conditioned with 4 ml of methanol and then 4 ml water. […]
Bupivacaine was quantitated by capillary GC with nitrogen-phosphorus detection )Bjork M et al., Journal of Chromatography 533:229-234 (1990)). […] Split injections (1.5:1) were performed with a Hewlett Packard 7673A automatic sampler, and the chromatograms were recorded and analyzed with H-P Chemstation (MSDOS) software. […]

mechanical allodynia = assay: Mechanical allodynia in rat model of peripheral neuropathy (L5/L6 spinal nerve ligation), intrathecal, Example 2; assay type: in vivo, Sprague-Dawley rats; details: 0.6 μmol intrathecal, pH 6.58
Description: Experiments carried out in support of the present invention were performed in a rat model of peripheral neuropathy detailed in Example 2. Briefly, in the model used, rats are subjected to a surgical procedure, described by Kim and Chung (1992), designed to reproducibly injure peripheral nerves (spinal nerves L5 and L6). These rats develop a hyperesthetic state, which can be measured using one or more paradigms known in the art. Here, allodynia was measured by stimulation of neuropathic rat hindlimb using wire hairs having graded degrees of stiffness.
[…]. Test solutions at pH 6.58 were administered intrathecally as described above. Mechanical allodynia was measured by pressing nylon filaments of varying diameters against the paw. Data are expressed in terms of 50% response threshold, which is the median buckling weight required to evoke paw withdrawal; the lower the stimulus level, the more severe the allodynia.
Male Sprague-Dawley rats (200-350 gm) were prepared with chronic lumbar intrathecal catheters inserted under halothane anesthesia (Yaksh and Rudy). Animals were placed in a prone position and the left paraspinal muscles were separated from the spinous processes at the L4 -S2 levels, as described by Kim et al. The left L5 and L6 nerve roots were exposed and tightly ligated with 6-0 surgical silk suture. The rats were allowed to recover from anesthesia. Allodynia was typically observed to occur beginning 1-2 days post surgery and continuing for as long as 45 days. For testing, animals were placed in plastic cubicles with open wire mesh bottoms. Compound dissolved in preservative-free saline solution was administered in a volume of 10 μl through the intrathecal catheter, followed by 10 μl saline to flush the catheter line. Animals were tested for allodynia at various time points after drug treatment, as described below.
To assess the threshold of a non-noxious stimulus required to produce a left hind paw withdrawal (allodynia), Von Frey hairs (ranging from 0.4-15 grams), were systematically applied to the surgically treated hind paw. Failure to evoke a response was cause to test the next stiffer hair. Evocation of a brisk withdrawal response was cause to test the next lower stimulus intensity. This paradigm was repeated according to a statistical method (Dixon, 1976) to define the 50% response threshold.
Data in FIG. 6 are expressed in terms of 50% response threshold, which is the median buckling weight required to evoke paw withdrawal; the lower the stimulus level, the more severe the allodynia. Allodynia thresholds, measured 30 minutes after injection, were plotted against dosage. Each point represents a value for a single animal.

Structure (SMILES) | motor dysfunction, IT (in words) [1] | potency relative to lidocaine [2] | blockade of sciatic nerve compound action potential (in words) [2] | activity as metabolite with regard to allodynia suppression, earlier application (allodynia [3]) | effect on allodynia, IV (in words) (allodynia [4]; IV infusion) | Emax at 20 mg/kg (allodynia [4]) [%] | further results
CCN(CC)CC(=O)Nc1c(C)ccc(O)c1C [3-OH L, 3-hydroxylidocaine] | no motor dysfunction was seen | 1/4 | showed some activity | active metabolite with regard to allodynia suppression | both potent and effective at suppressing allodynia | 76 | local anesthetic (sodium channel blocking) activity ([2]; FIG. 12 legend): weaker local anesthetic than lidocaine; MPE, IT 20 μg (allodynia [4]; IT, 20 (unit printed "l g")): 80.2±20%; MPE, IT 58 μg (allodynia [4]; IT, 58 (unit printed "l g")): 63±16%
CCNCC(=O)Nc1c(C)cccc1C [MEGX, Monoethylglycinexylidide] | transient motor dysfunction | approximately 1/3 | showed some activity | not MEGX was an active metabolite with regard to allodynia suppression | no effect | 28 | duration of motor dysfunction (hindquarter flaccidity / weakness) ([1]; 500 μg): 5 to 10 min; motor block / motor effects (summary) ([1]; 3-hydroxy MEGX at effective anti-allodynia dose, MEGX in excess): motor blockade; suppression of allodynia after IT administration (summary) (allodynia [4]; IT): not MEGX, suppressed allodynia after IT administration; effect on allodynia / PWT, IT 500 μg (in words) (allodynia [4]; IT, 500 μg, after recovery of motor function): no effect on PWT
CCCCN1CCCCC1C(=O)Nc1c(C)cccc1C (stereo not drawn) [bupivacaine] | – | – | – | – | – | – | toxicity (in words) [5]: evident toxicity as manifested by ataxia and lethargy; also recorded: Higher doses resulted in seizure; mean plasma level at seizure ([5]; N=4, unit not given): 7.4±0.7; effect of IV bupivacaine on allodynia, earlier literature (allodynia [3]; Biella G et al. 1992, centrally facilitated nociceptive processing): lack of effect of bupivacaine on centrally facilitated nociceptive processing; effect of intravenous bupivacaine on allodynia (allodynia [4]; IV infusion, 15 samples from 4 rats, P=0.11, linear regression): no effect on allodynia; also recorded: inactive against allodynia
Cc1cccc(C)c1OCC(C)N (stereo not drawn) [mexiletine] | – | – | – | – | – | – | effect on mechanical allodynia (50% response threshold), 0.6 μmol (mechanical allodynia): did not block mechanical allodynia
